Assay: xn = mol fraction of the nth substance listed, in the solute-free solvent

Cl.c1ccc2c(CC3=NCCN3)cccc2c1 + CO + CCOC(C)=O
solubility (g/100 g solution)
Conditions	278.15 K	283.15 K	288.15 K	293.15 K	298.15 K	303.15 K	308.15 K	313.15 K	318.15 K	323.15 K
x2 = 0.234	0.0388	0.0424	0.0488	0.0564	0.0653	0.0746	0.0856	0.0943	0.107	0.124
x2 = 0.4074	0.414	0.448	0.483	0.536	0.585	0.641	0.701	0.757	0.832	0.9
x2 = 0.5409	1.28	1.46	1.64	1.85	2.05	2.3	2.54	2.8	3.09	3.43
x2 = 0.647	2.35	2.79	3.18	3.62	4.14	4.79	5.44	6	6.94	7.75
x2 = 0.7342	2.92	3.55	4.1	4.91	5.54	6.21	7.05	7.84	8.87	9.75
x2 = 0.8048	4.02	4.75	5.56	6.6	7.64	8.62	10.1	11.2	12.5	14
x2 = 0.8651	4.96	5.72	6.88	8.2	9.51	11.3	12.9	14.3	15.7	17.4
x2 = 0.9166	5.87	6.98	8.13	9.66	11.2	13.1	15	17.1	19	20.8
x2 = 0.9612	6.37	7.47	8.84	10.6	12.3	14.4	16.6	18.9	21.1	23.5

CCc1cccc2c3c([nH]c12)C(CC)(CC(=O)O)OCC3 (stereo not given) + COC(C)=O + CCCCCC
solubility (g/100 g solution)
Conditions	278.15 K	283.15 K	288.15 K	293.15 K	298.15 K	303.15 K	308.15 K	313.15 K	318.15 K	323.15 K
x2 = 0.2255	1.11	1.18	1.26	1.35	1.42	1.5	1.61	1.69	1.76	1.86
x2 = 0.4369	3.55	3.98	4.43	4.96	5.39	5.87	6.35	6.88	7.34	7.96
x2 = 0.6357	4.26	5.33	6.41	7.66	8.86	9.93	11.4	12.9	14.1	15.7
x2 = 0.8229	10.8	12.1	13.6	15.1	16.7	18.3	20.2	22.4	24.4	26

Cl.c1ccc2c(CC3=NCCN3)cccc2c1 + CO + CC(C)O
solubility (g/100 g solution)
Conditions	278.15 K	283.15 K	288.15 K	293.15 K	298.15 K	303.15 K	308.15 K	313.15 K	318.15 K	323.15 K
x2 = 0.1724	0.41	0.484	0.577	0.695	0.819	1.01	1.16	1.42	1.62	1.85
x2 = 0.3192	0.793	0.94	1.05	1.29	1.46	1.74	2.05	2.38	2.74	3.14
x2 = 0.4456	1.3	1.58	1.8	2.14	2.45	2.88	3.31	3.94	4.53	5.08
x2 = 0.5556	1.91	2.41	2.82	3.29	3.8	4.3	5.07	6.02	6.76	7.78
x2 = 0.6522	2.34	2.72	3.12	3.71	4.22	4.92	5.63	6.51	7.33	8.47
x2 = 0.7377	2.88	3.52	4.25	5.06	5.99	6.93	7.8	8.95	10.2	11.5
x2 = 0.814	3.62	4.51	5.34	6.58	7.66	8.91	10.4	11.8	13.3	14.9
x2 = 0.8823	4.46	5.61	6.67	8.06	9.39	11	12.7	14.7	16.4	18.4
x2 = 0.944	5.43	6.55	7.62	9.25	10.7	12.9	15	17.3	19.4	21.8

Cc1nc(C)c(C)nc1C + CCCCO + CC#N
solubility (g/100 g solution)
Conditions	273.15 K	278.15 K	283.15 K	288.15 K	293.15 K	298.15 K	303.15 K	308.15 K	313.15 K
x2 = 0.1	14	16.4	19.4	21.5	27.1	29.5	36.1	39.3	44.2
x2 = 0.2	18.3	21	23.4	27.1	31.6	34.6	39.8	43.8	48.2
x2 = 0.3	21.2	24.6	26.9	30.9	35.3	38.2	42.8	46.6	50.5
x2 = 0.4	22.8	25.9	28.7	33	37.8	40.3	44.8	48.5	52.8
x2 = 0.5	23.7	26.6	30.4	34	39.2	41.5	45.7	49.3	53.6
x2 = 0.6	24.5	26.1	30.6	34.2	39.4	41.6	45.7	50	53.9
x2 = 0.7	24.3	25.7	30.1	33.6	39.3	41.5	44.8	50.1	53.6
x2 = 0.8	23.5	24.9	29.4	33	38.4	41	43.8	49.6	53
x2 = 0.9	21.8	23.6	27.9	30.6	36.3	39.2	41.8	47.9	51.3

CC(C)Oc1ccc2c(=O)c(-c3ccccc3)coc2c1 + CN1CCCC1=O + CCO
solubility (g/100 g solution)
Conditions	278.15 K	283.15 K	288.15 K	293.15 K	298.15 K	303.15 K	308.15 K	313.15 K	318.15 K	323.15 K
x2 = 0.1038	1.5	1.87	2.26	2.85	3.5	4.39	5.46	6.91	8.81	10.8
x2 = 0.2359	2.85	3.39	4.07	4.91	6.03	7.33	8.92	11	13.1	15.9
x2 = 0.41	5.57	6.67	7.63	9.21	10.9	12.9	15.3	17.8	21	24.9
x2 = 0.6471	9.68	11	12.7	14.6	16.8	19.3	22.1	25.1	28.4	32.1

Cc1cc(Cl)cc(C(=O)O)c1N + CC(C)=O + CC#N
solubility (g/100 g solution)
Conditions	278.15 K	283.15 K	288.15 K	293.15 K	298.15 K	303.15 K	308.15 K	313.15 K	318.15 K	323.15 K
x2 = 0.1114	1.03	1.1	1.25	1.42	1.6	1.82	2.12	2.5	2.98	3.61
x2 = 0.2335	1.51	1.63	1.87	2.13	2.41	2.74	3.2	3.76	4.46	5.3
x2 = 0.3677	1.98	2.16	2.48	2.84	3.21	3.65	4.26	5	5.89	6.95
x2 = 0.516	2.46	2.68	3.09	3.54	4	4.55	5.3	6.22	7.3	8.55
x2 = 0.6807	2.92	3.19	3.69	4.24	4.78	5.44	6.32	7.42	8.69	10.1
x2 = 0.8648	3.39	3.71	4.29	4.92	5.55	6.31	7.34	8.61	10.1	11.7

Cl.c1ccc2c(CC3=NCCN3)cccc2c1 + COCCO + CC(C)O
solubility (g/100 g solution)
Conditions	278.15 K	283.15 K	288.15 K	293.15 K	298.15 K	303.15 K	308.15 K	313.15 K	318.15 K	323.15 K
x2 = 0.08067	0.345	0.391	0.44	0.493	0.56	0.628	0.702	0.778	0.867	0.926
x2 = 0.1649	0.526	0.602	0.687	0.775	0.873	0.969	1.09	1.19	1.32	1.42
x2 = 0.2529	0.638	0.792	0.944	1.03	1.25	1.45	1.56	1.82	1.98	2.32
x2 = 0.3449	0.753	0.926	1.09	1.32	1.53	1.8	2.05	2.36	2.58	2.87
x2 = 0.4412	1.03	1.18	1.29	1.51	1.68	1.89	2.09	2.36	2.6	2.87
x2 = 0.5422	1.45	1.58	1.73	1.92	2.17	2.43	2.69	2.97	3.24	3.61
x2 = 0.6482	1.84	2.01	2.28	2.46	2.77	2.98	3.37	3.59	3.82	4.19
x2 = 0.7595	2.35	2.52	2.78	3.06	3.34	3.67	4.04	4.45	4.93	5.36
x2 = 0.8767	2.49	2.71	3.03	3.29	3.7	3.95	4.34	4.64	4.96	5.33

O=C(O)c1ccc(-n2nc(-c3ccccc3O)nc2-c2ccccc2O)cc1 + CC(O)CO + CC#N
298.15 K
Conditions	solubility (g/100 g solution)
x2 = 0.05655	2.43
x2 = 0.1188	4.43
x2 = 0.1878	6.62
x2 = 0.2645	8.48
x2 = 0.3504	9.81
x2 = 0.4473	10.7
x2 = 0.5573	11.3
x2 = 0.6833	11.4
x2 = 0.8292	11

Cl.NC(C=O)C(O)C(O)C(O)CO (stereo not given) + O + CO
solubility (g/100 g solution)
Conditions	283.15 K	288.15 K	293.15 K	298.15 K	303.15 K	308.15 K	313.15 K	318.15 K	323.15 K
x2 = 0.2	0.992	1.03	1.13	1.23	1.35	1.48	1.55	1.7	1.83
x2 = 0.4	2.16	2.53	2.73	2.95	3.19	3.51	3.82	4.32	4.72
x2 = 0.6	4.73	5.53	6	6.76	7.4	8.23	9.01	10	10.9
x2 = 0.8	10.2	11.5	12.8	13.9	15.2	16.7	18.1	19.7	21.3
x2 = 0.9	15.2	16.6	18	19.7	21	22.9	24.2	25.8	27.9

Source: the CheMixHub drug solubility set
